In article PMC4240039, “Interactions of ABCG2 (BCRP) with epidermal growth factor receptor kinase inhibitors developed for molecular imaging” (Frontiers in Pharmacology, 2014):

Columns and labels:
BCRP = molecular target: T1, BCRP (Homo sapiens, UniProt Q9UNQ0); experiment: BODIPY-prazosin accumulation assay in MDCK-BCRP cells; type: cell-based; details: 500 nM BODIPY-prazosin, 1 h incubation; test compounds 400 nM
T1 construct: expressed in transfected cells; host or cells: MDCK (MDCKII) cells, pcDNA3 vector; gift from Prof; Qingcheng Mao
T1 sequence (Q9UNQ0 1-655): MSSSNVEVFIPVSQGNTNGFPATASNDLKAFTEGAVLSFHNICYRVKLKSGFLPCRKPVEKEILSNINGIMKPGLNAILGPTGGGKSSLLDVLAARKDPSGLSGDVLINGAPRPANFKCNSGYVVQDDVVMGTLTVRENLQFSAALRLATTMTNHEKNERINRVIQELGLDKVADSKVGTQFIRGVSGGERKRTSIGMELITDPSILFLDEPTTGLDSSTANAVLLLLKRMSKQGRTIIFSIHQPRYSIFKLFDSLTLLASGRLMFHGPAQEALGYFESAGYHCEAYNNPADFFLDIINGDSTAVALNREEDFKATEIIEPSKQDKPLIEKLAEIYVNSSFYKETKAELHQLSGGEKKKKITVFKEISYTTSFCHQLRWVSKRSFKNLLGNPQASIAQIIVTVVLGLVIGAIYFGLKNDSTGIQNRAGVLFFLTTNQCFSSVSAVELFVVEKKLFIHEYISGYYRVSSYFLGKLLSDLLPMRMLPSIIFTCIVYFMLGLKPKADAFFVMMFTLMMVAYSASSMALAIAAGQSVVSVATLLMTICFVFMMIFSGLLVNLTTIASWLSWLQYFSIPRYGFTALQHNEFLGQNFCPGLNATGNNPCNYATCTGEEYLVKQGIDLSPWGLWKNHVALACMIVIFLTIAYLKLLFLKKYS
Protocol: Accumulation assays with fluorescent substrates of eﬄux transporter are commonly utilized to determine the inhibitory effect of a test compound ([Brouwer et al., 2013]). In this study, MDCK-CT and MDCK-BCRP cells were seeded at density of 20 × 10^4 cells/well in 24 well plates. Experiments were performed two days after achieving 100% confluent monolayers. Prior to the experiment, the medium was removed and cells were incubated for 1 h with one of the test compounds dissolved in DMEM with 5 mM 4-(2-Hydroxyethyl)-1-piperazineethanesulfonic acid (HEPES), pH 7.4. In the accumulation phase cells were co-incubated with 500 nM BODIPY-prazosin (a BCRP/P-gp substrate; [Dey et al., 1997]; [Ni et al., 2010]) and one of the test compounds dissolved in DMEM with 5 mM HEPES. After 1 h, the cells were washed three times with ice-cold PBS. Intracellular fluorescence intensity of BODIPY-prazosin was measured within 1 h by a plate reader (Synergy HT, BioTek, Winooski, VT, USA) with excitation wavelength 485 nm and emission wavelength 528 nm.
FIGURE 4 Effect of EGFRIs on BODIPY-prazosin accumulation. Cell protein concentration-normalized BODIPY prazosin fluorescence in MDCK-BCRP cells were evaluated in the presence and the absence of 400 nM of the tested compounds following 1 h incubation.

human BCRP ATPase = molecular target: T2, human BCRP ATPase (Homo sapiens, UniProt Q9UNQ0); experiment: BCRP ATPase activation assay ([…] kit, Sf9 membrane preparations); type: biochemical; details: for Activation of BCRP ATPase: 400 nM (submicromolar), Sf9 membranes containing BCRP, vanadate-sensitive ATPase activity; for BCRP ATPase activation relative to that produced by gefitinib: 400 nM, Sf9 membranes
T2 construct: purchased SOLVO Biotechnology, Szeged, Hungary; host or cells: Sf9 membrane preparations
T2 sequence (Q9UNQ0 1-655): T1 sequence (Q9UNQ0 1-655)
Protocol: ATPase activity was evaluated using […] kits (SOLVO Biotechnology, Szeged, Hungary), according to the manufacturer’s instructions.
FIGURE 2 Interactions of EGFRIs with BCRP ATPase. (A) Activation of BCRP-ATPase in Sf9 membrane preparations containing BCRP. Membranes were incubated with ATP and the tested compounds at 400 nM in the presence and absence of sodium orthovanadate. (B) Inhibition of sulfasalazine-stimulated BCRP-ATPase. The effect of EGFRIs was evaluated in sulfasalazine (10 μM)-stimulated membranes. Data are presented as means ± SD of the vanadate-sensitive ATPase activity from two experiments in duplicates.

P-gp = test system: P-gp; design: method as in Abourbeh et al., 2007; details: ref Abourbeh et al., 2007; cited from earlier work
[1] = design: method as in Dissoki et al., 2007; details: ref Dissoki et al., 2007; cited from earlier work
[2] = MTT cell proliferation assay, BCRP-overexpressing cells; type: cell-based, canine; details: dog, MDCK-BCRP cells (MDCK cells transfected with wild-type BCRP), read-out: IC50 for inhibition of cell proliferation in MDCK-BCRP cells
Protocol: (§1) Madin-Darbey canine kidney (MDCK) cells transfected with pcDNA empty vector (MDCK-pcDNA3; MDCK-CT) and cDNA coding for wild-type BCRP (MDCK-BCRP) cells were a generous gift from Prof. Qingcheng Mao (University of Washington, Seattle, WA, USA). The human lung carcinoma cell lines A549 and HCC827 cells were provided by Prof. Eyal Mishani.
Madin-Darbey canine kidney vector (MDCK-pcDNA3) and MDCK-BCRP cells were grown in Eagle’s minimum essential medium (MEM) supplemented with 10% fetal bovine serum, 2 mM L-glutamine, 100 units/mL penicillin, and 100 μg/mL streptomycin, at 37∘C and 5% CO2-humidified incubator. The BCRP positive cells were selected by supplementation of 0.05 mg/mL gentamicin to the growth medium. The adherent cells, continuously cultivated in 10 cm^2 cell culture plates, were grown to nearly 80–90% confluence before they were harvested by trypsin-EDTA 0.25% solution. A549 were grown in Ham’s F12 growth medium and HCC827 were grown in RPMI-1640 growth medium. The cells were treated as described above.
(§2) The assay was performed as described earlier ([Rajendra et al., 2003]) with minor modifications. Briefly, Cells were seeded at density of 80 × 10^3 cells per well in 24 well plates. On the following day, the cells were incubated (in hexaplicates) with 0.2–102.4 μM of the tested EGFRIs or with the vehicle in the growth medium for 72 h. Then, the medium was removed and 300 μl of 0.5 mg/mL MTT solution in Hank’s Balanced Salt Solution (HBSS) was added to each well. After 2 h incubation at 37∘C, the MTT solution was removed and the cells were washed three times with HBSS, then the culture plates were incubated with 500 μl dimethyl sulphoxide (DMSO) for 15 min at room temperature. The absorption was detected at 540 nm using the Synergy plate reader. The proliferation of cells from MTT studies was expressed as a percent of control, DMSO-treated cells of the same type. An inhibitory sigmoidal model was fitted to the experimental data using Phoenix WinNonlin 6.3 (Pharsight, Mountain View, CA, USA).

MDCK-CT cells = experiment: MTT cell proliferation assay, vector control cells; type: cell-based, canine; details: Canis lupus familiaris, 72 h, read-out: IC50 for inhibition of control cell proliferation
Protocol: as §1
Madin-Darbey canine kidney vector (MDCK-pcDNA3) and MDCK-BCRP cells were grown in Eagle’s minimum essential medium (MEM) supplemented with 10% fetal bovine serum, 2 mM L-glutamine, 100 units/mL penicillin, and 100 μg/mL streptomycin, at 37∘C and 5% CO2-humidified incubator. The BCRP positive cells were selected by supplementation of 0.05 mg/mL gentamicin to the growth medium. […] The cells were treated as described above.
as §2, with “Briefly,” for “The assay was performed as described earlier ([Rajendra et al., 2003]) with minor modifications. Briefly,”, “On the following day, the cells were incubated (in hexaplicates) with 0.2–102.4 μM of the tested EGFRIs or with the vehicle in the growth medium for 72 h.” left out

EGFR = test system: EGFR; design: method as in earlier work; details: A431 cell lysates; ref Shaul et al., 2004; Mishani et al., 2005; Dissoki et al., 2007; read-out: EGFR binding potency IC50; cited from earlier work

Row | Structure (SMILES) | Activation of BCRP ATPase (human BCRP ATPase) | BCRP ATPase activation relative to that produced by gefitinib (human BCRP ATPase) | BODIPY-prazosin accumulation in MDCK-BCRP cells (BCRP) | P-gp substrate status (P-gp) | Log P [1] | IC50 at 72 h [2] | IC50 (MDCK-CT cells) | IC50 (EGFR)
1 | COc1ccc2c3c([nH]c2c1)[C@H](C=C(C)C)N1C(=O)[C@@H]2CCCN2C(=O)[C@@H]1C3 [FTC, fumitremorgin C] |  |  | significantly (p < 0.01) enhanced |  |  |  |  | 
2 | CN(C)C/C=C/C(=O)Nc1ccc2ncnc(Nc3cc(Cl)c(Cl)cc3F)c2c1 [ML04] | activated BCRP ATPase |  |  | found to be a P-gp substrate | 3.9 | > 50 µM | 2.1 ± 0.6 µM | 
3 | O=C(CCl)Nc1ccc2ncnc(Nc3cc(Cl)c(Cl)cc3F)c2c1 [ML05] | activated BCRP ATPase | ≤ 40% |  |  | 4.12 |  |  | 10 nM

Second part, led by results:

Row | Activation of BCRP ATPase (human BCRP ATPase) | BCRP ATPase activation relative to that produced by gefitinib (human BCRP ATPase) | Structure (SMILES) | BODIPY-prazosin accumulation in MDCK-BCRP cells (BCRP) | P-gp substrate status (P-gp) | Log P [1] | IC50 at 72 h [2] | IC50 (MDCK-CT cells) | IC50 (EGFR)
4 | activated BCRP ATPase | ≤ 40% | CN(C)C/C=C/C(=O)Nc1ccc2ncnc(Nc3cccc(I)c3)c2c1 [ML06] |  |  |  | > 50 µM | 2.2 ± 0.7 µM | 0.05 to 5 nM
5 | no activating effect |  | O=C(/C=C/CN(CCO)CCO)Nc1cc2c(Nc3cc(Cl)c(Cl)cc3F)ncnc2cc1OCCOCCOCCOCCF [ML10] |  |  |  |  |  | 
6 | no activating effect |  | O=C(CCl)Nc1cc2c(Nc3cc(Cl)c(Cl)cc3F)ncnc2cc1OCCOCCOCCOCCOCCOCCF [PEG6-ML05] |  |  | 4.75 | > 50 µM | 2.8 ± 3.1 µM | 30 to 45 nM
7 | activated BCRP ATPase |  | COCC(=O)Nc1ccc2ncnc(Nc3cccc(Br)c3)c2c1 [methoxy-Br-ML03, N-{4-[(3-Bromo-phenyl)amino]-quinazoline-6-yl}-2-methoxyacetamide] |  |  |  | > 50 µM | 1.8 ± 1.2 µM | 
8 | activated BCRP ATPase |  | COCC(=O)Nc1ccc2ncnc(Nc3cc(Cl)c(Cl)cc3F)c2c1 [methoxy-ML03] |  |  |  |  |  | 252 nM
